Results published in patent US20240132431A1, “METHOD FOR ALKYLATING ACIDIC FUNCTIONAL GROUP” (Chugai Seiyaku Kabushiki Kaisha, priority 2021, published 2024).

Target: T1, Bcl-2 protein (Recombinant Human Bcl-2 Protein) (Homo sapiens, UniProt P10415)
T1 construct: purchased Novus NBP2-34889
Experiment: Binding evaluation of mixture library compounds to Bcl-2 using AS-MS (affinity selection mass spectrometry)
Conditions: ASMS Ratio(%)=(A−C)/B×100; for ASMS ratio (%) n = 1: replicate n = 1; for ASMS ratio (%) n = 2: replicate n = 2
Procedure: For one well of MICROPLATE, 96-well, PP, V-BOTTOM (Greiner bio-one, 651201), DMSO solutions of 12 mixtures (prepared to approximately 0.58 mM based on calculations from the average molecular weight of each mixture), in each of which 100 compounds are mixed, were each dispensed, and dispensed into a total of 12 wells, where the 12 mixtures are mixAI-B4J-01, mixAI-B1M-01, mixAI-B1K-01, mixAI-B10-01, mixAI-B1A-01, mixAI-B3A-01, mixAI-B21-01, mixAI-B2L-01, mixAI-B2N-01, mixAI-B2A-01, mixAI-B2Q-01, and mixAI-B2R-01 listed in [Table AI-03-B4J-01], [Table AI-03-B1M-01], [Table AI-03-B1K-01], [Table AI-03-B10-01], [Table AI-03-B1A-01], [Table AI-03-B3A-01], [Table AI-03-B2I-01], [Table AI-03-B2L-01], [Table AI-03-B2N-01], [Table AI-03-B2A-01], [Table AI-03-B2Q-01], and [AI-03-B2R-01] shown in Example 6. Using the LABCYTE ECHO® 555 Acoustic Dispensing System (BECKMAN COULTER), 70 nL was collected from each of the 12 wells into one arbitrary well to prepare a sample solution with 1200 compounds in the mixed state (the presence of 1152 compounds had already been identified when prepared in Example 6-5-3). (In the present specification, the mixture collected in this one well is referred to as one library.) Furthermore, a Bcl-2 protein (Novus, NBP2-34889, Recombinant Human Bcl-2 Protein, Lot E60145051) (19.2 μL) that had been prepared in advance to be 20.9 μM using a Tris-HCl buffer (25 mM Tris-HCl pH 7.4, 150 mM NaCl, 0.025% Tween-20, 1 mM DTT) was added to the well in which 1200 compounds (the presence of 1152 compounds had already been identified when prepared in Example 6-5-3) were dispensed (final compound concentration […], final Bcl-2 concentration 20 μM), and the mixture was incubated in the dark at 23° C. for 1 hour. Next, using the 96-well MacroSpin column, P-2 Material (Harvard, 74-5655) that had been swollen, conditioning of the 96-well MacroSpin column was performed three times by centrifugation with 200 μL of an assay buffer (25 mM Tris-HCl pH 7.4, 150 mM NaCl, 0.025% Tween-20, 1 mM DTT), 2000 XG, 4° C., 2 min. Subsequently, 20 μL of the sample after incubation was added to the 96-well MacroSpin column, P-2 Material, that had been conditioned, and SEC treatment was performed by centrifugation at 2000×G for 2 minutes. To the liquid passed from the SEC, 32 μL of a 1:1 mixed solution of acetonitrile and methanol (LC/MS grade, Fujifilm Wako Pure Chemical Corporation) was added, the mixture was centrifuged at 1800×G, 4° C., 5 min, and the supernatant was used as analysis sample ASMS (A), while a sample that had been prepared by the same operations at 1200 compounds/well and to which only the Tris-HCl buffer had been added without the Bcl-2 protein was incubated under the same conditions, no 96-well MacroSpin column treatment was performed, the same organic solvent was added, and the supernatant solution obtained by centrifugation was used as STD (B). Next, a sample that had been prepared by the same operations at 1200 compounds/well and to which only the Tris-HCl buffer had been added without the Bcl-2 protein was incubated under the same conditions, the same 96-well MacroSpin column treatment was performed, the same organic solvent was added, and the supernatant solution obtained by centrifugation was used as BK (C), and measured by reversed phase LC/MS.
Then, analysis of the 1200 compounds was carried out for samples A, B, and C with TraceFinder 5.1 (Thermo Fisher Scientific) and CHANCE Software (in-house), and the ASMS Ratio (%) was calculated according to the following calculation formula.
Calculation formula: ASMS Ratio(%)=(A−C)/B×100

[1] = AS-MS, mixture of 1200 compounds, Bcl-2
[2] = AS-MS on the mixture of 1200 library compounds

T1 sequence (P10415 whole entry): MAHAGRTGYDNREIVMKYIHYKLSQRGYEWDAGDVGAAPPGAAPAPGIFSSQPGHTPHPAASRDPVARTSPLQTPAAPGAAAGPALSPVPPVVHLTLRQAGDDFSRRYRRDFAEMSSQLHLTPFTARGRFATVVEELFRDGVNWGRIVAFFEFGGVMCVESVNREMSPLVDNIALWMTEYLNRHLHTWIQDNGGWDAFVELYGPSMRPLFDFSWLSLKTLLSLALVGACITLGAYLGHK

Compound	ASMS ratio (%) n = 1 [1] [%]	ASMS ratio (%) n = 2 [1] [%]	ASMS ratio (%) n = 1 [2] [%]	ASMS ratio (%) n = 2 [2] [%]
6-[4-[4-(5-Ethoxypyridin-3-yl)naphthalene-1-carbonyl]piperazin-1-yl]-N-propylpyridazine-3-carboxamide [B1M072-01]	0.0	1.9		
6-[4-[4-(5-Ethoxypyridin-3-yl)thiophene-2-carbonyl]piperazin-1-yl]-N-propylpyridazine-3-carboxamide [B1M082-01]			0.0	0.0
6-[4-[5-[2-(3-Ethoxyphenyl)ethynyl]pyridine-3-carbonyl]piperazin-1-yl]-N-propylpyridazine-3-carboxamide [B1M001-01]	0.0	0.0		
6-[4-[5-[2-(5-Ethoxypyridin-3-yl)ethynyl]pyridine-3-carbonyl]piperazin-1-yl]-N-propylpyridazine-3-carboxamide [B1M056-01]	0.5	0.0		
6-[4-[[2-(3-Ethoxyphenyl)phenyl]methyl]piperazin-1-yl]-N-propylpyridazine-3-carboxamide [B1M042-01]	0.0	0.0		
6-[4-[[2-[2-(3-Ethoxyphenyl)ethynyl]phenyl]methyl]piperazin-1-yl]-N-propylpyridazine-3-carboxamide [B1M053-01]	−3.0	−3.1		
6-[4-[[2-[2-(5-Ethoxypyridin-3-yl)ethynyl]phenyl]methyl]piperazin-1-yl]-N-propylpyridazine-3-carboxamide [B1M055-01]	3.9	−1.2		
6-[4-[[3-(3-Ethoxyphenyl)-5-propan-2-yloxyphenyl]methyl]piperazin-1-yl]-N-propylpyridazine-3-carboxamide [B1M016-01]	0.0	0.0		
6-[4-[[3-(5-Ethoxypyridin-3-yl)-5-(trifluoromethoxy)phenyl]methyl]piperazin-1-yl]-N-propylpyridazine-3-carboxamide [B1M035-01]	2.9	−1.7		
6-[4-[[3-(5-Ethoxypyridin-3-yl)-5-(trifluoromethyl)phenyl]methyl]piperazin-1-yl]-N-propylpyridazine-3-carboxamide [B1M029-01]	3.0	−0.6		
6-[4-[[3-(5-Ethoxypyridin-3-yl)-5-propan-2-yloxyphenyl]methyl]piperazin-1-yl]-N-propylpyridazine-3-carboxamide [B1M066-01]	0.0	4.4		
6-[4-[[3-Ethoxy-5-(3-ethoxyphenyl)phenyl]methyl]piperazin-1-yl]-N-propylpyridazine-3-carboxamide [B1M010-01]	0.0	0.0		
6-[4-[[3-Ethoxy-5-(5-ethoxypyridin-3-yl)phenyl]methyl]piperazin-1-yl]-N-propylpyridazine-3-carboxamide [B1M012-01]	−3.5	−2.3		
6-[4-[[4-(3-Ethoxyphenyl)-2,6-dimethoxyphenyl]methyl]piperazin-1-yl]-N-propylpyridazine-3-carboxamide [B1M021-01]	0.0	0.0		
6-[4-[[4-(3-Ethoxyphenyl)-2-ethylphenyl]methyl]piperazin-1-yl]-N-propylpyridazine-3-carboxamide [B1M070-01]	0.0	0.0		
6-[4-[[4-(3-Ethoxyphenyl)-2-methoxyphenyl]methyl]piperazin-1-yl]-N-propylpyridazine-3-carboxamide [B1M094-01]			−1.5	−2.1
6-[4-[[4-(3-Ethoxyphenyl)-3-methylphenyl]methyl]piperazin-1-yl]-N-propylpyridazine-3-carboxamide [B1M059-01]	−5.5	−7.2		
6-[4-[[4-(3-Ethoxyphenyl)naphthalen-1-yl]methyl]piperazin-1-yl]-N-propylpyridazine-3-carboxamide [B1M045-01]	2.5	−2.3		
6-[4-[[4-(3-Ethoxyphenyl)thiophen-2-yl]methyl]piperazin-1-yl]-N-propylpyridazine-3-carboxamide [B1M049-01]	−0.9	−0.4		
6-[4-[[4-(5-Ethoxypyridin-3-yl)-2,6-dimethoxyphenyl]methyl]piperazin-1-yl]-N-propylpyridazine-3-carboxamide [B1M023-01]	1.4	−3.0		
6-[4-[[4-(5-Ethoxypyridin-3-yl)-3-fluorophenyl]methyl]piperazin-1-yl]-N-propylpyridazine-3-carboxamide [B1M086-01]			0.0	0.0
6-[4-[[4-(5-Ethoxypyridin-3-yl)-3-methylphenyl]methyl]piperazin-1-yl]-N-propylpyridazine-3-carboxamide [B1M065-01]	0.2	−6.4		
6-[4-[[4-(5-Ethoxypyridin-3-yl)naphthalen-1-yl]methyl]piperazin-1-yl]-N-propylpyridazine-3-carboxamide [B1M047-01]	1.1	0.3		
6-[4-[[4-(5-Ethoxypyridin-3-yl)thiophen-2-yl]methyl]piperazin-1-yl]-N-propylpyridazine-3-carboxamide [B1M051-01]	0.7	1.9		
CCOc1cccc(-c2csc(C(=O)N3CCN(c4ccc(C(=O)NCC56CC7CC(CC(C7)C5)C6)nn4)CC3)c2)c1 [B1A001-01, N-(1-Adamantylmethyl)-6-[4-[4-(3-ethoxyphenyl)thiophene-2-carbonyl]piperazin-1-yl]pyridazine-3-carboxamide]	17.6	−0.7		
CCOc1cncc(-c2csc(C(=O)N3CCN(c4ccc(C(=O)NCC56CC7CC(CC(C7)C5)C6)nn4)CC3)c2)c1 [B1A002-01]	0.0	4.9		
CCOc1cccc(-c2ccc(C(=O)N3CCN(c4ccc(C(=O)NCC56CC7CC(CC(C7)C5)C6)nn4)CC3)cc2C)c1 [B1A003-01, N-(1-Adamantylmethyl)-6-[4-[4-(3-ethoxyphenyl)-3-methylbenzoyl]piperazin-1-yl]pyridazine-3-carboxamide]	7.5	5.8		
CCOc1cncc(-c2ccc(C(=O)N3CCN(c4ccc(C(=O)NCC56CC7CC(CC(C7)C5)C6)nn4)CC3)cc2C)c1 [B1A004-01, N-(1-Adamantylmethyl)-6-[4-[4-(5-ethoxypyridin-3-yl)-3-methylbenzoyl]piperazin-1-yl]pyridazine-3-carboxamide]	−6.2	2.6		
